Test results reported in US20260125382A1, “COMPOUNDS FOR INHIBITING OR DEGRADING CDK2 AND/OR CDK9 AND MEDICINAL USE THEREOF” (KOREA RESEARCH INSTITUTE OF CHEMICAL TECHNOLOGY, priority 2022, published 2026).

Tests used:
[1] = biological target: T1, CDK2 (Homo sapiens, UniProt P24941); assay: CDK protein degradation activity (Western blotting), CDK2; assay type: cell-based; conditions: MDA-MB-231 cells, 16 hours, Western blot
T1 construct: endogenous in cells; host or cells: MDA-MB-231
Procedure, shortened: (§1)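 Protein levels were read by Western blot densitometry, tubulin serving as loading reference. Beforehand, MDA-MB-231 cells had been exposed for 16 hours to 100 nM, 1 μM or 10 μM compound, DMSO as control.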

[2] = biological target: T2, CDK9 (Homo sapiens, UniProt P50750); assay: CDK protein degradation activity (Western blotting), CDK9; assay type: cell-based; conditions: MDA-MB-231 cells, 16 hours, Western blot
T2 construct: endogenous in cells; host or cells: MDA-MB-231
T2 sequence (P50750 whole entry): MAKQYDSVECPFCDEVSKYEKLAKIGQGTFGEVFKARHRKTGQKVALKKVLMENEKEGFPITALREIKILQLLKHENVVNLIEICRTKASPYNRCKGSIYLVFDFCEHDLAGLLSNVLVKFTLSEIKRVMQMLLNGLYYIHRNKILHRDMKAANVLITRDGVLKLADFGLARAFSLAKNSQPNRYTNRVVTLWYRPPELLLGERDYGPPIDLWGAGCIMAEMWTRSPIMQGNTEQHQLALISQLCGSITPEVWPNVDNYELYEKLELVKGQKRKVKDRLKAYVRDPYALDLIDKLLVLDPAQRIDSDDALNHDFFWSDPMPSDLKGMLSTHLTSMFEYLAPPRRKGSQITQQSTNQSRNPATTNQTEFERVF
Procedure, shortened: as §1

O=C1CC[C@H](N2C(=O)c3ccc(N4CCN(CC5CCN(c6ccc(Nc7ncnc8c7ncn8C7CC(NC(=O)Cc8ccccc8)C7)cc6)CC5)CC4)cc3C2=O)C(=O)N1 (stereo partly drawn) [Compound 319, N-((1s,3s)-3-(6-((4-(4-((4-(2-(2,6-dioxopiperidin-3-yl)-1,3-dioxoisoindolin-5-yl)piperazin-1-yl)methyl)piperidin-1-yl)phenyl)amino)-9H-purin-9-yl)cyclobutyl)-2-phenylacetamide]
Enzyme degradation CDK2 (% remaining) @ 0.1 μM [1]: 10% | Enzyme degradation CDK2 (% remaining) @ 1 μM [1]: 0% | Enzyme degradation CDK2 (% remaining) @ 10 μM [1]: 0% | Enzyme degradation CDK9 (% remaining) @ 0.1 μM [2]: 70% | Enzyme degradation CDK9 (% remaining) @ 1 μM [2]: 0% | Enzyme degradation CDK9 (% remaining) @ 10 μM [2]: 0%

O=C1CC[C@H](n2nnc3ccc(N4CCN(CC5CCN(c6ccc(Nc7ncnc8c7ncn8C7CC(NC(=O)Cc8ccccc8)C7)cc6)CC5)CC4)cc3c2=O)C(=O)N1 (stereo partly drawn) [Compound 320, N-((1s,3s)-3-(6-((4-(4-((4-(3-(2,6-dioxopiperidin-3-yl)-4-oxo-3,4-dihydrobenzo[d][1,2,3]triazin-6-yl)piperazin-1-yl)methyl)piperidin-1-yl)phenyl)amino)-9H-purin-9-yl)cyclobutyl)-2-phenylacetamide]
Enzyme degradation CDK2 (% remaining) @ 0.1 μM [1]: 20% | Enzyme degradation CDK2 (% remaining) @ 1 μM [1]: 0% | Enzyme degradation CDK2 (% remaining) @ 10 μM [1]: 0% | Enzyme degradation CDK9 (% remaining) @ 0.1 μM [2]: 80% | Enzyme degradation CDK9 (% remaining) @ 1 μM [2]: 10% | Enzyme degradation CDK9 (% remaining) @ 10 μM [2]: 10%

O=C1CC[C@H](N2C(=O)c3cccc(NCC(=O)N4CCN(CC5CCN(c6ccc(Nc7ncnc8c7ncn8[C@H]7C[C@@H](NC(=O)Cc8ccccc8)C7)cc6)CC5)CC4)c3C2=O)C(=O)N1 [Compound 322, N-((1s,3s)-3-(6-((4-(4-((4-((2-(2,6-dioxopiperidin-3-yl)-1,3-dioxoisoindolin-4-yl)glycyl)piperazin-1-yl)methyl)piperidin-1-yl)phenyl)amino)-9H-purin-9-yl)cyclobutyl)-2-phenylacetamide]
Enzyme degradation CDK2 (% remaining) @ 0.1 μM [1]: 20% | Enzyme degradation CDK2 (% remaining) @ 1 μM [1]: 10% | Enzyme degradation CDK2 (% remaining) @ 10 μM [1]: 20% | Enzyme degradation CDK9 (% remaining) @ 0.1 μM [2]: 20% | Enzyme degradation CDK9 (% remaining) @ 1 μM [2]: 10% | Enzyme degradation CDK9 (% remaining) @ 10 μM [2]: 20%

O=C1CC[C@H](N2C(=O)c3cc(F)c(N4CCC(CCN5CCN(c6ccc(Nc7ncnc8c7ncn8C7CC(NC(=O)Cc8ccccc8)C7)cc6)CC5)CC4)cc3C2=O)C(=O)N1 (stereo partly drawn) [Compound 323, N-((1s,3s)-3-(6-((4-(4-(2-(1-(2-(2,6-dioxopiperidin-3-yl)-6-fluoro-1,3-dioxoisoindolin-5-yl)piperidin-4-yl)ethyl)piperazin-1-yl)phenyl)amino)-9H-purin-9-yl)cyclobutyl)-2-phenylacetamide]
Enzyme degradation CDK2 (% remaining) @ 0.1 μM [1]: 60% | Enzyme degradation CDK2 (% remaining) @ 1 μM [1]: 50% | Enzyme degradation CDK2 (% remaining) @ 10 μM [1]: 40% | Enzyme degradation CDK9 (% remaining) @ 0.1 μM [2]: 0/0/0% | Enzyme degradation CDK9 (% remaining) @ 1 μM [2]: 0/0/0% | Enzyme degradation CDK9 (% remaining) @ 10 μM [2]: 0/0/0%

O=C1CC[C@H](n2nnc3ccc(N4CCC(CCN5CCN(c6ccc(Nc7ncnc8c7ncn8C7CC(NC(=O)Cc8ccccc8)C7)cc6)CC5)CC4)cc3c2=O)C(=O)N1 (stereo partly drawn) [Compound 324, N-((1s,3s)-3-(6-((4-(4-(2-(1-(3-(2,6-dioxopiperidin-3-yl)-4-oxo-3,4-dihydrobenzo[d][1,2,3]triazin-6-yl)piperidin-4-yl)ethyl)piperazin-1-yl)phenyl)amino)-9H-purin-9-yl)cyclobutyl)-2-phenylacetamide]
Enzyme degradation CDK2 (% remaining) @ 0.1 μM [1]: 70% | Enzyme degradation CDK2 (% remaining) @ 1 μM [1]: 80% | Enzyme degradation CDK2 (% remaining) @ 10 μM [1]: 10% | Enzyme degradation CDK9 (% remaining) @ 0.1 μM [2]: 0/0/0% | Enzyme degradation CDK9 (% remaining) @ 1 μM [2]: 0/0/0% | Enzyme degradation CDK9 (% remaining) @ 10 μM [2]: 0/0/0%

O=C1CC[C@H](N2C(=O)c3ccc(OCC(=O)N4CCN(CC5CCN(c6ccc(Nc7ncnc8c7ncn8C7CC(NC(=O)c8c(Cl)cccc8Cl)C7)cc6)CC5)CC4)cc3C2=O)C(=O)N1 (stereo partly drawn) [Compound 325, 2,6-dichloro-N-((1s,3s)-3-(6-((4-(4-((4-(2-((2-(2,6-dioxopiperidin-3-yl)-1,3-dioxoisoindolin-5-yl)oxy)acetyl)piperazin-1-yl)methyl)piperidin-1-yl)phenyl)amino)-9H-purin-9-yl)cyclobutyl)benzamide]
Enzyme degradation CDK2 (% remaining) @ 0.1 μM [1]: 40% | Enzyme degradation CDK2 (% remaining) @ 1 μM [1]: 60% | Enzyme degradation CDK2 (% remaining) @ 10 μM [1]: 60% | Enzyme degradation CDK9 (% remaining) @ 0.1 μM [2]: 80% | Enzyme degradation CDK9 (% remaining) @ 1 μM [2]: 0% | Enzyme degradation CDK9 (% remaining) @ 10 μM [2]: 0%

O=C1CC[C@H](N2C(=O)c3cccc(OCC(=O)N4CCN(CC5CCN(c6ccc(Nc7ncnc8c7ncn8C7CC(NC(=O)Cc8ccccc8)C7)cc6)CC5)CC4)c3C2=O)C(=O)N1 (stereo partly drawn) [Compound 326, N-((1s,3s)-3-(6-((4-(4-((4-(2-((2-(2,6-dioxopiperidin-3-yl)-1,3-dioxoisoindolin-4-yl)oxy)acetyl)piperazin-1-yl)methyl)piperidin-1-yl)phenyl)amino)-9H-purin-9-yl)cyclobutyl)-2-phenylacetamide]
Enzyme degradation CDK2 (% remaining) @ 0.1 μM [1]: 20% | Enzyme degradation CDK2 (% remaining) @ 1 μM [1]: 0% | Enzyme degradation CDK2 (% remaining) @ 10 μM [1]: 0% | Enzyme degradation CDK9 (% remaining) @ 0.1 μM [2]: 80% | Enzyme degradation CDK9 (% remaining) @ 1 μM [2]: 10% | Enzyme degradation CDK9 (% remaining) @ 10 μM [2]: 0%

O=C1CCC(N2C(=O)c3ccc(N4CCC(CCN5CCN(c6ccc(Nc7ncnc8c7ncn8[C@H]7C[C@@H](NC(=O)Cc8ccccc8)C7)cc6)CC5)CC4)cc3C2=O)C(=O)N1 (stereo partly drawn) [Compound 327, N-((1s,3s)-3-(6-((4-(4-(2-(1-(2-(2,6-dioxopiperidin-3-yl)-1,3-dioxoisoindolin-5-yl)piperidin-4-yl)ethyl)piperazin-1-yl)phenyl)amino)-9H-purin-9-yl)cyclobutyl)-2-phenylacetamide]
Enzyme degradation CDK2 (% remaining) @ 0.1 μM [1]: 20% | Enzyme degradation CDK2 (% remaining) @ 1 μM [1]: 0% | Enzyme degradation CDK2 (% remaining) @ 10 μM [1]: 0% | Enzyme degradation CDK9 (% remaining) @ 0.1 μM [2]: 0/0/0% | Enzyme degradation CDK9 (% remaining) @ 1 μM [2]: 0/0/0% | Enzyme degradation CDK9 (% remaining) @ 10 μM [2]: 0/0/0%

O=C1CC[C@H](N2C(=O)c3ccc(N4CC(C(=O)N5CCC(CCN6CCN(c7ccc(Nc8ncnc9c8ncn9C8CC(NC(=O)Cc9ccccc9)C8)cc7)CC6)CC5)C4)cc3C2=O)C(=O)N1 (stereo partly drawn) [Compound 328, N-((1s,3s)-3-(6-((4-(4-(2-(1-(1-(2-(2,6-dioxopiperidin-3-yl)-1,3-dioxoisoindolin-5-yl)azetidin-3-carbonyl)piperidin-4-yl)ethyl)piperazin-1-yl)phenyl)amino)-9H-purin-9-yl)cyclobutyl)-2-phenylacetamide]
Enzyme degradation CDK2 (% remaining) @ 0.1 μM [1]: 40% | Enzyme degradation CDK2 (% remaining) @ 1 μM [1]: 50% | Enzyme degradation CDK2 (% remaining) @ 10 μM [1]: 40% | Enzyme degradation CDK9 (% remaining) @ 0.1 μM [2]: 0/0/0% | Enzyme degradation CDK9 (% remaining) @ 1 μM [2]: 0/0/0% | Enzyme degradation CDK9 (% remaining) @ 10 μM [2]: 0/0/0%

O=C1CC[C@H](N2C(=O)c3ccc(N4CC(C(=O)N5CCC(CN6CCN(c7ccc(Nc8ncnc9c8ncn9C8CC(NC(=O)Cc9ccccc9)C8)cc7)CC6)CC5)C4)cc3C2=O)C(=O)N1 (stereo partly drawn) [Compound 329, N-((1s,3s)-3-(6-((4-(4-((1-(1-(2-(2,6-dioxopiperidin-3-yl)-1,3-dioxoisoindolin-5-yl)azetidin-3-carbonyl)piperidin-4-yl)methyl)piperazin-1-yl)phenyl)amino)-9H-purin-9-yl)cyclobutyl)-2-phenylacetamide]
Enzyme degradation CDK2 (% remaining) @ 0.1 μM [1]: 50% | Enzyme degradation CDK2 (% remaining) @ 1 μM [1]: 50% | Enzyme degradation CDK2 (% remaining) @ 10 μM [1]: 60% | Enzyme degradation CDK9 (% remaining) @ 0.1 μM [2]: 10% | Enzyme degradation CDK9 (% remaining) @ 1 μM [2]: 0% | Enzyme degradation CDK9 (% remaining) @ 10 μM [2]: 0%

O=C1CC[C@H](N2C(=O)c3ccc(N4CCC(C(=O)N5CCC(CN6CCN(c7ccc(Nc8ncnc9c8ncn9C8CC(NC(=O)Cc9ccccc9)C8)cc7)CC6)CC5)CC4)cc3C2=O)C(=O)N1 (stereo partly drawn) [Compound 330, N-((1s,3s)-3-(6-((4-(4-((1-(1-(2-(2,6-dioxopiperidin-3-yl)-1,3-dioxoisoindolin-5-yl)piperidin-4-carbonyl)piperidin-4-yl)methyl)piperazin-1-yl)phenyl)amino)-9H-purin-9-yl)cyclobutyl)-2-phenylacetamide]
Enzyme degradation CDK2 (% remaining) @ 0.1 μM [1]: 60% | Enzyme degradation CDK2 (% remaining) @ 1 μM [1]: 60% | Enzyme degradation CDK2 (% remaining) @ 10 μM [1]: 40% | Enzyme degradation CDK9 (% remaining) @ 0.1 μM [2]: 0/0/0% | Enzyme degradation CDK9 (% remaining) @ 1 μM [2]: 0/0/0% | Enzyme degradation CDK9 (% remaining) @ 10 μM [2]: 0/0/0%

O=C1CC[C@H](N2C(=O)c3ccc(N4CC(C(=O)N5CCN(CC6CCN(c7ccc(Nc8ncnc9c8ncn9C8CC(NC(=O)Cc9ccccc9)C8)cc7)CC6)CC5)C4)cc3C2=O)C(=O)N1 (stereo partly drawn) [Compound 331, N-((1s,3s)-3-(6-((4-(4-((4-(1-(2-(2,6-dioxopiperidin-3-yl)-1,3-dioxoisoindolin-5-yl)azetidin-3-carbonyl)piperazin-1-yl)methyl)piperidin-1-yl)phenyl)amino)-9H-purin-9-yl)cyclobutyl)-2-phenylacetamide]
Enzyme degradation CDK2 (% remaining) @ 0.1 μM [1]: 50% | Enzyme degradation CDK2 (% remaining) @ 1 μM [1]: 30% | Enzyme degradation CDK2 (% remaining) @ 10 μM [1]: 30% | Enzyme degradation CDK9 (% remaining) @ 0.1 μM [2]: 30% | Enzyme degradation CDK9 (% remaining) @ 1 μM [2]: 10% | Enzyme degradation CDK9 (% remaining) @ 10 μM [2]: 0%

O=C1CCC(N2C(=O)c3cc(F)c(N4CCC(N5CCN(c6ccc(Nc7ncnc8c7ncn8[C@H]7C[C@@H](NC(=O)Cc8ccccc8)C7)cc6)CC5)CC4)cc3C2=O)C(=O)N1 (stereo partly drawn) [Compound 333, N-((1s,3s)-3-(6-((4-(4-(1-(2-(2,6-dioxopiperidin-3-yl)-6-fluoro-1,3-dioxoisoindolin-5-yl)piperidin-4-yl)piperazin-1-yl)phenyl)amino)-9H-purin-9-yl)cyclobutyl)-2-phenylacetamide]
Enzyme degradation CDK2 (% remaining) @ 0.1 μM [1]: 50% | Enzyme degradation CDK2 (% remaining) @ 1 μM [1]: 10% | Enzyme degradation CDK2 (% remaining) @ 10 μM [1]: 10% | Enzyme degradation CDK9 (% remaining) @ 0.1 μM [2]: 50% | Enzyme degradation CDK9 (% remaining) @ 1 μM [2]: 0% | Enzyme degradation CDK9 (% remaining) @ 10 μM [2]: 0%
